Publication PMC2892903 (Journal of agricultural and food chemistry, 2010)

Test: Plasma pharmacokinetics
Format: in vivo, Sprague-Dawley rats
Conditions: rat plasma, any confection treatment (CDK, CHS, CMP)

Row | SMILES | Detection in plasma (HPLC-MS)
1 | Oc1cc(O)c2c(c1)OC(c1ccc(O)c(O)c1)C(O)C2 (racemic) [(±)-C, (±)-catechin] | No intact (±)-C, (±)-C/EC sulfated metabolites or unconjugated O-Me-(±)-C/EC metabolites were detected in the plasma
2 | Oc1cc(O)c2c(c1)O[C@H](c1ccc(O)c(O)c1)[C@H](O)C2 (racemic) [(±)-EC, (−)-epicatechin] | minor component in blood
